Columns and labels:
Assay in all cases: radiometric filter-binding kinase assay, Kinase HotSpot
Details in all cases: compound 0.5 µM; ATP 10 µM
[1] = target: CSF1R (human) (UniProt P07333)
[2] = target: BLK (human) (UniProt P51451)
[3] = target: PIM1 (human) (UniProt P11309)
[4] = target: MARK2 (human) (UniProt Q7KZI7)
[5] = target: DAPK2 (human) (UniProt Q9UIK4)
[6] = target: MERTK (human) (UniProt Q12866)
[7] = target: WNK2 (human) (UniProt Q9Y3S1)
[8] = target: EPHB4 (human) (UniProt P54760)
[9] = target: MAP2K1 (human) (UniProt Q02750)
[10] = target: CLK4 (human) (UniProt Q9HAZ1)
[11] = target: PDGFRA (human) (UniProt P16234)
[12] = target: FRK (human) (UniProt P42685)
[13] = target: NEK6 (human) (UniProt Q9HC98)
[14] = target: TGFBR2 (human) (UniProt P37173)
[15] = target: NEK9 (human) (UniProt Q8TD19)
[16] = target: EPHA5 (human) (UniProt P54756)
[17] = target: HIPK4 (human) (UniProt Q8NE63)
[18] = target: PAK1 (human) (UniProt Q13153)
[19] = target: PIM2 (human) (UniProt Q9P1W9)
[20] = target: TSSK2 (human) (UniProt Q96PF2)
[21] = target: MAP4K4 (human) (UniProt O95819)
[22] = target: PASK (human) (UniProt Q96RG2)
[23] = target: RPS6KA5 KD2 (human) (UniProt O75582)
[24] = target: CSNK1D (human) (UniProt P48730)
[25] = target: SRMS (human) (UniProt Q9H3Y6)
[26] = target: SRPK2 (human) (UniProt P78362)
[27] = target: MAP3K14 (human) (UniProt Q99558)
[28] = target: IKBKE (human) (UniProt Q14164)
[29] = target: CHEK2 (human) (UniProt O96017)
[30] = target: MAPK9 (human) (UniProt P45984)
[31] = target: CSNK2A2 (human) (UniProt P19784)
[32] = target: PRKD1 (human) (UniProt Q15139)
[33] = target: MAPKAPK5 (human) (UniProt Q8IW41)
[34] = target: BRSK2 (human) (UniProt Q8IWQ3)
[35] = target: ERBB2 (human) (UniProt P04626)
[36] = target: CDK4 CCND1 (human) (UniProt P24385+P11802)
[37] = target: MINK1 (human) (UniProt Q8N4C8)
[38] = target: GRK4 (human) (UniProt P32298)
[39] = target: ULK2 (human) (UniProt Q8IYT8)
[40] = target: DYRK1A (human) (UniProt Q13627)
[41] = target: DDR2 (human) (UniProt Q16832)
[42] = target: MUSK (human) (UniProt O15146)

Sequence of SRMS (human) (Q9H3Y6 whole entry, looked up): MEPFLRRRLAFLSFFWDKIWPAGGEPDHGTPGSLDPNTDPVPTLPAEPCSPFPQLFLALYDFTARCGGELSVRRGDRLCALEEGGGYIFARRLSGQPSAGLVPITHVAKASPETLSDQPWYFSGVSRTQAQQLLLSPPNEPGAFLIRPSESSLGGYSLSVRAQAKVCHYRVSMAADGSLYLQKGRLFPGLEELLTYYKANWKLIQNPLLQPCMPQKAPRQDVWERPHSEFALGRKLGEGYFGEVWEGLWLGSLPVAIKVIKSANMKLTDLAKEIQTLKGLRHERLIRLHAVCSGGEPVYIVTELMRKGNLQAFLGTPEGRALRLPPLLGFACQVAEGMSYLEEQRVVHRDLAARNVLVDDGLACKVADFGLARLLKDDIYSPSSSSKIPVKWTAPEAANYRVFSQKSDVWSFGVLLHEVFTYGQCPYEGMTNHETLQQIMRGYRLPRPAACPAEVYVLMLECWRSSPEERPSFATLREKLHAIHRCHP
Sequence of NEK6 (human) (Q9HC98 whole entry, looked up): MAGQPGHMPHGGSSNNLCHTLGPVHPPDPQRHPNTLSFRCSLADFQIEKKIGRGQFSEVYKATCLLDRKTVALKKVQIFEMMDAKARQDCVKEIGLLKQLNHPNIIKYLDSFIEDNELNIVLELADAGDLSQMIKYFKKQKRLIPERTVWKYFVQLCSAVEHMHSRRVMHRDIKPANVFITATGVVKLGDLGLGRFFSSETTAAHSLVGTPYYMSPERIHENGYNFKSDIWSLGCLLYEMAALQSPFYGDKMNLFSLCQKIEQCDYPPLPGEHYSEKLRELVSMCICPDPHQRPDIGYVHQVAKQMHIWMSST
Sequence of TSSK2 (human) (Q96PF2 whole entry, looked up): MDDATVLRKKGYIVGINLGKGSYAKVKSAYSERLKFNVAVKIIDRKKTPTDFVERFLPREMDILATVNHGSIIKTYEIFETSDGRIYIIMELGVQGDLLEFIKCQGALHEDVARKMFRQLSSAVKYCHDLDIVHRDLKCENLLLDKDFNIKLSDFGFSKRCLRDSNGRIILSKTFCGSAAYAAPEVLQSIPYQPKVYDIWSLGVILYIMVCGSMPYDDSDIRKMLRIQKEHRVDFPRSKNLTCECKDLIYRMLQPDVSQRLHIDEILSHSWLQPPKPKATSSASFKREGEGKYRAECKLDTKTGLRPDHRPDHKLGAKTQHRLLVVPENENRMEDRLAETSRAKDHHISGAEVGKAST
Sequence of IKBKE (human) (Q14164 whole entry, looked up): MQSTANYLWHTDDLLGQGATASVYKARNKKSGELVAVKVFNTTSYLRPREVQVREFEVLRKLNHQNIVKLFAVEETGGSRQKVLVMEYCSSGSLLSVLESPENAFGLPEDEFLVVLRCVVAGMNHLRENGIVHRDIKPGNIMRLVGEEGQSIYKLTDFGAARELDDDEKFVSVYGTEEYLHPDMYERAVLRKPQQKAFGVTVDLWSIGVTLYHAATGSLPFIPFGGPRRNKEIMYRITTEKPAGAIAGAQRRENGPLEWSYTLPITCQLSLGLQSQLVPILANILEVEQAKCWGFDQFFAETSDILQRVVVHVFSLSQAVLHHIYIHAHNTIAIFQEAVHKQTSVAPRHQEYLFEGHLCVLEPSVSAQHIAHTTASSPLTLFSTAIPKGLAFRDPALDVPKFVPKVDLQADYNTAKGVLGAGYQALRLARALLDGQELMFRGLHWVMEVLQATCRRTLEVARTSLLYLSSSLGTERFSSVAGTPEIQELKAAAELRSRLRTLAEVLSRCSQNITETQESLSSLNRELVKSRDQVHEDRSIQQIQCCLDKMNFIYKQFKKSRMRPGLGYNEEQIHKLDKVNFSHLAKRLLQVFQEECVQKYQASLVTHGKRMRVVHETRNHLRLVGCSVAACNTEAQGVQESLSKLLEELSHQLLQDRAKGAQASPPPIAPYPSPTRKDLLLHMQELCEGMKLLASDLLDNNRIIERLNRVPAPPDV
Sequence of CSF1R (human) (P07333 whole entry, looked up): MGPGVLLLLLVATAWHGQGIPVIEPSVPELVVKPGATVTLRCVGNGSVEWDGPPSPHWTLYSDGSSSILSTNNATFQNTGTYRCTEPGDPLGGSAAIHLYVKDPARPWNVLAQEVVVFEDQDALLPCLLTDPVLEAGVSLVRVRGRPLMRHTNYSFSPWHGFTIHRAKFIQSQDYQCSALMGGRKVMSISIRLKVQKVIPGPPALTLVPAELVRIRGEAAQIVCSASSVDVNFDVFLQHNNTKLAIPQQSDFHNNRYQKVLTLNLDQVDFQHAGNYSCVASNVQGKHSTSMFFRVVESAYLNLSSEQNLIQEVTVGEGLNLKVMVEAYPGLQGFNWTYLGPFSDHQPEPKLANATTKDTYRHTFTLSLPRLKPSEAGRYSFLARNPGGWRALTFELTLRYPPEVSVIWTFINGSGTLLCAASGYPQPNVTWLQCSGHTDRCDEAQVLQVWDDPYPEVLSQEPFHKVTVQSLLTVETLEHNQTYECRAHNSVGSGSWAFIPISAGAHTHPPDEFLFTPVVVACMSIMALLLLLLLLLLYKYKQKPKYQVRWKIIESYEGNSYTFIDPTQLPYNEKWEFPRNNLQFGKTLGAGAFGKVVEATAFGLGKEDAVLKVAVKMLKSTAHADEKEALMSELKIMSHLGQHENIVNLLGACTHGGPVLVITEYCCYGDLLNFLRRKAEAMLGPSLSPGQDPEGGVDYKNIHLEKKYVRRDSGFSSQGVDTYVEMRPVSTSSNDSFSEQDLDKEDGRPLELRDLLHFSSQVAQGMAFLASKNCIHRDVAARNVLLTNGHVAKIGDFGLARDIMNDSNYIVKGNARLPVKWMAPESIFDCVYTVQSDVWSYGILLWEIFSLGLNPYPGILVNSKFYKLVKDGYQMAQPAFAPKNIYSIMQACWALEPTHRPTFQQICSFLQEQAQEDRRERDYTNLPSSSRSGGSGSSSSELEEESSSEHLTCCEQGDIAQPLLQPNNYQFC
Sequence of ULK2 (human) (Q8IYT8 whole entry, looked up): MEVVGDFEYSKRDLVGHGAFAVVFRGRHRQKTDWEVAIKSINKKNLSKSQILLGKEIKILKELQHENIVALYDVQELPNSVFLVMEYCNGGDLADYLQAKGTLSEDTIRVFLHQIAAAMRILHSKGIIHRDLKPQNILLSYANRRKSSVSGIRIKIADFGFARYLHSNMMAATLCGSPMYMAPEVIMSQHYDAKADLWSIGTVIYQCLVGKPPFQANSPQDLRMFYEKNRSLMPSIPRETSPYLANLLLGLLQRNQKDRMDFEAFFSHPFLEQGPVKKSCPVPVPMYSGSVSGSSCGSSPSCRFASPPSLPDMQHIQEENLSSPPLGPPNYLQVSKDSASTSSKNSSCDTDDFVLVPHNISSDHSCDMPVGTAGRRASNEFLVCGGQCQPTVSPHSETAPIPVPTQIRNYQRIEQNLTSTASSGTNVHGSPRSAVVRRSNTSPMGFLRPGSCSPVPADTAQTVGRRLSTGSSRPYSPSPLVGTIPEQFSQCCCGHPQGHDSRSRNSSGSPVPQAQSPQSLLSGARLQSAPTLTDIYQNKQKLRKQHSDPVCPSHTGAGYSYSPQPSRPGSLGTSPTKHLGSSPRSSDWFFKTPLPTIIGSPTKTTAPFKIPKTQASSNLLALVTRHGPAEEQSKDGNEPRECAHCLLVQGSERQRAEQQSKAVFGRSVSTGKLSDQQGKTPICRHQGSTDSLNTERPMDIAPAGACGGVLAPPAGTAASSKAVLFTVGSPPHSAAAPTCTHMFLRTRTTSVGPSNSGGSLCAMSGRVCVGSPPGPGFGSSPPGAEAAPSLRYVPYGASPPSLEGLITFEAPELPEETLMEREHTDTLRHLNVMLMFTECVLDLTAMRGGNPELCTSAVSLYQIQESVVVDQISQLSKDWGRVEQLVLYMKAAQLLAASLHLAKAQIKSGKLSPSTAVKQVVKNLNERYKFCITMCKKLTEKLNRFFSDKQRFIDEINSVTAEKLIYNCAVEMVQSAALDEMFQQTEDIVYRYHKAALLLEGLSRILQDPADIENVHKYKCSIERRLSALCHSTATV
Sequence of CHEK2 (human) (O96017 whole entry, looked up): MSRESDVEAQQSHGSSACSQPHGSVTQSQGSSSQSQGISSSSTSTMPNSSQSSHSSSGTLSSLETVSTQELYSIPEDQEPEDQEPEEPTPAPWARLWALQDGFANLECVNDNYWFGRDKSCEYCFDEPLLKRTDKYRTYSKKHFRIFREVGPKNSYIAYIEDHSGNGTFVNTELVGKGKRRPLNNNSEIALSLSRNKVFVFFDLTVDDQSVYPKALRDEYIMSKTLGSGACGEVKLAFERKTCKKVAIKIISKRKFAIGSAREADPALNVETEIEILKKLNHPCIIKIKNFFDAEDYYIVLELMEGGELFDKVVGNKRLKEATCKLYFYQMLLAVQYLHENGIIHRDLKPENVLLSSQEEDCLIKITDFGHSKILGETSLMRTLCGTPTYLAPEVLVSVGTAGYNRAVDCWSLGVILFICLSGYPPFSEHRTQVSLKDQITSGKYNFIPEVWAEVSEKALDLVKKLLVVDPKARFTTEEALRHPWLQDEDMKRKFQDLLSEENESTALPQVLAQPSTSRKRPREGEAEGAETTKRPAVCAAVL
Sequence of GRK4 (human) (P32298 whole entry, looked up): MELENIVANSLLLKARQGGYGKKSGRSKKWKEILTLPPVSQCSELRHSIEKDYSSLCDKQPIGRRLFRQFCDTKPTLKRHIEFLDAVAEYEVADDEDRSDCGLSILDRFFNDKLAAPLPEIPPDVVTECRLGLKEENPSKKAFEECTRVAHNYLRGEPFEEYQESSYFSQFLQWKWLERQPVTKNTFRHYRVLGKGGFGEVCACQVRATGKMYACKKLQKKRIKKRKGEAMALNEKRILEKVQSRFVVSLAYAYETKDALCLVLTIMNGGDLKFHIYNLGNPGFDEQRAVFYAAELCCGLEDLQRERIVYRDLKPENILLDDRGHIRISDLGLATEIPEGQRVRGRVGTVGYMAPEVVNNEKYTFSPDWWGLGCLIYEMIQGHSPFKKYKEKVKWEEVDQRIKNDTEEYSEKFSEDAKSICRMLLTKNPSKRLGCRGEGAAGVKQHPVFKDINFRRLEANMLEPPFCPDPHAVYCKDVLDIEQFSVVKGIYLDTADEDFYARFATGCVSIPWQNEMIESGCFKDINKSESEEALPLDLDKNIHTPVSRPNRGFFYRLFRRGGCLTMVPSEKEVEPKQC

Cc1cccc(-c2nc(C(C)(C)C)[nH]c2-c2ccc3c(c2)OCO3)n1 was tested, and the residual activity [1] was 102%, the residual activity [2] was 98.5% and the residual activity [3] was 100%. For the same compound, the residual activity [4] was 90%, the residual activity [5] was 102% and the residual activity [6] was 82%. The residual activity [7] was 105%, the residual activity [8] was 91.4% and the residual activity [9] was 93.3%. The residual activity [10] was 95.8%, the residual activity [11] was 94.1% and the residual activity [12] was 98.8%. For the same compound, the residual activity [13] was 109%, the residual activity [14] was 105% and the residual activity [15] was 95.6%. For the same compound, the residual activity [16] was 95.6%, the residual activity [17] was 107% and the residual activity [18] was 96.3%. It also gave a residual activity [19] of 99.7%, a residual activity [20] of 92.7% and a residual activity [21] of 86.9%. The residual activity [22] was 78.9%, the residual activity [23] was 97.5% and the residual activity [24] was 63.4%. The residual activity [25] was 102%, the residual activity [26] was 95.8% and the residual activity [27] was 109%. The residual activity [28] was 91.8%, the residual activity [29] was 96.4% and the residual activity [30] was 98.2%. For the same compound, the residual activity [31] was 83.6%, the residual activity [32] was 92.3% and the residual activity [33] was 96.1%. For the same compound, the residual activity [34] was 99.3%, the residual activity [35] was 102% and the residual activity [36] was 105%. It also gave a residual activity [37] of 98.4%, a residual activity [38] of 101% and a residual activity [39] of 75.4%. It also gave a residual activity [40] of 98.4%, a residual activity [41] of 98.3% and a residual activity [42] of 99.1%.

For COc1ccc(S(=O)(=O)N(CCO)c2ccccc2CN(C)C/C=C/c2ccc(Cl)cc2)cc1, the residual activity [1] was 103%, the residual activity [2] was 103% and the residual activity [3] was 104%. It also gave a residual activity [4] of 95.5%, a residual activity [5] of 107% and a residual activity [6] of 97%. The residual activity [7] was 97.1%, the residual activity [8] was 104% and the residual activity [9] was 94.3%. It also gave a residual activity [10] of 96%, a residual activity [11] of 102% and a residual activity [12] of 106%. The residual activity [13] was 103%, the residual activity [14] was 97.2% and the residual activity [15] was 91.9%. For the same compound, the residual activity [16] was 98.1%, the residual activity [17] was 101% and the residual activity [18] was 96%. For the same compound, the residual activity [19] was 99.7%, the residual activity [20] was 107% and the residual activity [21] was 97.6%. The residual activity [22] was 103%, the residual activity [23] was 103% and the residual activity [24] was 102%. It also gave a residual activity [25] of 101%, a residual activity [26] of 98.5% and a residual activity [27] of 90.8%. For the same compound, the residual activity [28] was 93.7%, the residual activity [29] was 101% and the residual activity [30] was 85.5%. It also gave a residual activity [31] of 93.7%, a residual activity [32] of 100% and a residual activity [33] of 100%. The residual activity [34] was 103%, the residual activity [35] was 97.8% and the residual activity [36] was 94.6%. It also gave a residual activity [37] of 98.1%, a residual activity [38] of 94% and a residual activity [39] of 102%. It also gave a residual activity [40] of 102%, a residual activity [41] of 96.8% and a residual activity [42] of 94.7%.

COc1cc2ncnc(Nc3ccc(Oc4ccccc4)cc3)c2cc1OC showed a residual activity [1] of 100%, a residual activity [2] of 9.95% and a residual activity [3] of 102%. For the same compound, the residual activity [4] was 95.3%, the residual activity [5] was 102% and the residual activity [6] was 51.2%. The residual activity [7] was 88.1%, the residual activity [8] was 85.5% and the residual activity [9] was 85.9%. For the same compound, the residual activity [10] was 122%, the residual activity [11] was 88.8% and the residual activity [12] was 72.2%. It also gave a residual activity [13] of 93%, a residual activity [14] of 137% and a residual activity [15] of 97.8%. It also gave a residual activity [16] of 85.3%, a residual activity [17] of 91.8% and a residual activity [18] of 98.2%. It also gave a residual activity [19] of 107%, a residual activity [20] of 103% and a residual activity [21] of 90.5%. The residual activity [22] was 104%, the residual activity [23] was 106% and the residual activity [24] was 106%. It also gave a residual activity [25] of 31.6%, a residual activity [26] of 101% and a residual activity [27] of 93%. It also gave a residual activity [28] of 101%, a residual activity [29] of 29.6% and a residual activity [30] of 99%. The residual activity [31] was 98.2%, the residual activity [32] was 95.6% and the residual activity [33] was 98%. It also gave a residual activity [34] of 101%, a residual activity [35] of 29.5% and a residual activity [36] of 113%. It also gave a residual activity [37] of 101%, a residual activity [38] of 97.1% and a residual activity [39] of 97.8%. The residual activity [40] was 84.6%, the residual activity [41] was 97.9% and the residual activity [42] was 89.8%.

Compound O=C1NC(=O)c2c1c1c3ccccc3[nH]c1n1cncc21 has a residual activity [1] of 64.9%, a residual activity [2] of 73.9% and a residual activity [3] of 1.43%. It also gave a residual activity [4] of 34.7%, a residual activity [5] of 43.8% and a residual activity [6] of 53.9%. It also gave a residual activity [7] of 86.6%, a residual activity [8] of 105% and a residual activity [9] of 102%. The residual activity [10] was 99%, the residual activity [11] was 84.4% and the residual activity [12] was 96.8%. It also gave a residual activity [13] of 88.7%, a residual activity [14] of 95.8% and a residual activity [15] of 77.4%. It also gave a residual activity [16] of 92%, a residual activity [17] of 98.5% and a residual activity [18] of 93.9%. For the same compound, the residual activity [19] was 34.4%, the residual activity [20] was 99.1% and the residual activity [21] was 21.2%. For the same compound, the residual activity [22] was 33.6%, the residual activity [23] was 87.6% and the residual activity [24] was 17.2%. The residual activity [25] was 100%, the residual activity [26] was 80.2% and the residual activity [27] was 83%. For the same compound, the residual activity [28] was 103%, the residual activity [29] was 21.2% and the residual activity [30] was 65.3%. The residual activity [31] was 53.4%, the residual activity [32] was 61.4% and the residual activity [33] was 123%. The residual activity [34] was 29.7%, the residual activity [35] was 109% and the residual activity [36] was 86%. The residual activity [37] was 48.2%, the residual activity [38] was 101% and the residual activity [39] was 95.5%. The residual activity [40] was 89.1%, the residual activity [41] was 96.5% and the residual activity [42] was 54.4%.

— the kinase profiling compilation of Christmann-Franck et al. (2016)
